One experiment addresses 5-HT2b receptor (Homo sapiens, UniProt P41595). The experiment can be described thus: Serotonergic receptor binding selectivity, 5-HT2b.
The target of a further experiment is T1, 5-HT1f receptor (Homo sapiens, UniProt P30939).
T1 sequence (P30939 1-366): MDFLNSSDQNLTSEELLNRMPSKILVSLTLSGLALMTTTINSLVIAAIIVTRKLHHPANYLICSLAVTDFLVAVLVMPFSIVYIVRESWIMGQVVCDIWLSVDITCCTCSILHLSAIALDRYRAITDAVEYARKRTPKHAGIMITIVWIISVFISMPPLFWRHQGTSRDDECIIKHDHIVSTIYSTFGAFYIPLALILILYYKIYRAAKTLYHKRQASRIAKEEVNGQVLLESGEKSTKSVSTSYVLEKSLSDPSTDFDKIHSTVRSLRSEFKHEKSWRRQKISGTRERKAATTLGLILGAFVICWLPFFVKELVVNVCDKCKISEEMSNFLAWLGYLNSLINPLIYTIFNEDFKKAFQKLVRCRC
As to the kind of experiment: Serotonergic receptor binding selectivity, 5-HT1f. The conditions noted are these: 5-HT RECEPTOR 1f.

In experiment [1] the target is T2, human 5-HT2C receptor (Homo sapiens, UniProt P28335).
T2 construct: expressed in transfected cells
T2 sequence (P28335 33-458): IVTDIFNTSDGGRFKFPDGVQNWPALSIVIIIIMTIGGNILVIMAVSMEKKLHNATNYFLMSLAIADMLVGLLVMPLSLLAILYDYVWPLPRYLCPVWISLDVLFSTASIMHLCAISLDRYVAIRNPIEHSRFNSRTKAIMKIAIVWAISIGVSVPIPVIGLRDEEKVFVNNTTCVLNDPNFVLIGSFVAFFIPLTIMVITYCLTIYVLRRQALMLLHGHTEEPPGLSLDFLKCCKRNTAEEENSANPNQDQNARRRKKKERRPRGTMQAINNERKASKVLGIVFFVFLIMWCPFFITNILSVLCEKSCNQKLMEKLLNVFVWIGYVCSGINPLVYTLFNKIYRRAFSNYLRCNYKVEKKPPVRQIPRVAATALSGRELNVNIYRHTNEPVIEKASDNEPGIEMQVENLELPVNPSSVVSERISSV
The experiment can be described thus: [125I]-DOI binding for determination of 5-HT2c receptor affinity. The conditions noted are these: for Ki: 5-HT RECEPTOR 2c, [125I]-DOI, membranes of AV12 cells with human 5-HT2c, Ki from IC50 by Cheng-Prusoff; for affinity for the 5-HT2c receptor (in words): [125I]-DOI binding. The procedure: The ability of the compounds of Formula I to bind to the 5-HT2c receptor subtype was measured essentially as described by Wainscott (Wainscott, et al., Journal of Pharmacology and Experimental Therapeutics, 276, 720-727 (1996)).
AV12 cells stably transfected with the human 5-HT2c receptors were grown in suspension and harvested by centrifugation, resuspended in 50 mM tris-HCl, pH 7.4, and frozen at −70° C. On the day of assay, an aliquot of cells was thawed, resuspended in 40 mL of 50 mM tris-HCl, pH 7.4, and centrifuged at 39,800×g for 10 minutes at 4° C. The resulting pellet was resuspended, incubated at 37° C. for 10 minutes to remove endogenous serotonin, then centrifuged twice more.
Briefly, prepared cell membranes were added to dilutions of compounds in a final solution containing 50 mM tris-HCl, pH 7.4, 9.75 mM MgCl2, 0.5 mM EDTA, 10 μM pargyline, 0.1% sodium ascorbate, and 0.1 nM [^125I]-DOI, with 10 μM mianserin for defining non-specific binding. All incubations (800 μL) were performed at 37° C. for 30 minutes before harvesting onto GF/C filters prewet with 0.5% polyethyleneimine, with four 1 mL washes of ice-cold 50 mM tris-HCl, pH 7.4, and counting in a gamma counter. Nonlinear regression analysis was performed on the concentration response curves using a four parameter logistic equation described by DeLean (DeLean, et al., Molecular Pharmacology, 21, 5-16 (1982)). IC50 values were converted to Ki values using the Cheng-Prusoff equation (Cheng, et al., Biochem. Pharmacol., 22, 3099-3108 (1973)).

For experiment [2], the target named is T2, human 5-HT2C receptor. The experiment can be described thus: [35S]-GTPγS binding (immunoadsorption scintillation proximity assay). Particulars: for functional activity at the 5-HT2c receptor (in words): [35S]-GTPγS assay. The class given is biochemical. From the text:
The 5-HT2C receptor is functionally coupled to specific G-proteins. Agonist activation of 5-HT2C G-protein-coupled receptors results in the release of GDP from the […] (G alpha q or G alpha i) of the G-protein and the subsequent binding of GTP. The binding of the stable analog [^35S]-GTPγS is an indicator of this receptor's activation.
The immunoadsorption scintillation proximity assay (ISPA) in microtiter plates of [^35S]-GTPγS binding to G alpha q or G alpha i was modified from published conditions (DeLapp et al, JPET 289 (1999) 946-955). Test compounds were dissolved in DMSO and diluted in assay buffer consisting of 50 mM Tris-HCl (pH 7.4), 10 mM MgCl2, 100 mM NaCl, and 0.2 mM EGTA. Incubations were performed over 12 test concentrations; volume was 200 μl. The incubation also contained […] and 0.25 nM [^35S]-GTPγS. Membrane homogenates from AV12 cells stably transfected with the human 5-HT2C receptor were added and the microtiter plates were incubated for 30 minutes at room temperature. The incubation was terminated by the addition of Nonidet P-40 (final concentration of 0.27%), followed by addition of rabbit polyclonal anti-G alpha q/11 antibody (0.2 μg per well), and anti-rabbit scintillation proximity assay beads (Amersham; 1.25 mg per well; final volume was 290 μl). The mixture was incubated for 3 hours at room temperature to complete the immunoadsorption of [^35S]-GTPγS bound to G alpha q/11. Microtiter plates were centrifuged briefly to pellet beads. [^35S]-GTPγS binding was quantitated by microtiter plate scintillation spectrometry (Wallac). Data analysis was performed by nonlinear regression analysis with GraphPad Prism software running on a personal computer, using 5-HT control concentration-response curves to define maximal stimulation of [^35S]-GTPγS binding.

The target of the next experiment is T3, 5-HT1a receptor (Homo sapiens, UniProt P08908).
T3 sequence (P08908 1-422): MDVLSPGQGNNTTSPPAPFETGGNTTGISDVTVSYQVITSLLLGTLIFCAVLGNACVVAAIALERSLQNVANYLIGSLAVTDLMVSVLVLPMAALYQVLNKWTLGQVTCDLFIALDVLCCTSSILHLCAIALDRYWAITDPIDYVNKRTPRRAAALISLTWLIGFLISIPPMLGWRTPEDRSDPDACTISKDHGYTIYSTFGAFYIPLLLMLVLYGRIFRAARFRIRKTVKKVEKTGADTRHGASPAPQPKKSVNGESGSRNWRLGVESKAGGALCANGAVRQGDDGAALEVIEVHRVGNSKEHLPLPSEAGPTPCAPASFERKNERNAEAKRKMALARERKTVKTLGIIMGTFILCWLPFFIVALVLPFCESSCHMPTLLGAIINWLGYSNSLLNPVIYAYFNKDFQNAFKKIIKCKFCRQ
As to the kind of experiment: Serotonergic receptor binding selectivity, 5-HT1a.

Another experiment addresses 5-HT1b receptor (Homo sapiens, UniProt P28222). The experiment can be described thus: Serotonergic receptor binding selectivity, 5-HT1b. Particulars: 5-HT RECEPTOR 1b.
For the next experiment, the target named is 5-HT1e receptor (Homo sapiens, UniProt P28566). As to the kind of experiment: Serotonergic receptor binding selectivity, 5-HT1e. Particulars: 5-HT RECEPTOR 1e.
Sequence of 5-HT1e receptor (P28566 whole entry): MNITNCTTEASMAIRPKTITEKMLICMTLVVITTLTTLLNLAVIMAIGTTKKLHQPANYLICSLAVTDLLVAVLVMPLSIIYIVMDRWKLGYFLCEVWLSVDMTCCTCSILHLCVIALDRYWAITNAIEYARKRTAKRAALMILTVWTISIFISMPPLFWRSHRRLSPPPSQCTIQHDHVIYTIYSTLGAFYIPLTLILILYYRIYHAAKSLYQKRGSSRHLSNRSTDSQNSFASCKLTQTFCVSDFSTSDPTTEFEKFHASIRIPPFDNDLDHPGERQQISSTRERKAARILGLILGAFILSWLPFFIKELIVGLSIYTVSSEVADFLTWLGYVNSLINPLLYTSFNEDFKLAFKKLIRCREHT
The target of the next experiment is 5-HT6 receptor (Homo sapiens, UniProt P50406). The experiment can be described thus: Serotonergic receptor binding selectivity, 5-HT6.
Sequence of 5-HT6 receptor (P50406 whole entry): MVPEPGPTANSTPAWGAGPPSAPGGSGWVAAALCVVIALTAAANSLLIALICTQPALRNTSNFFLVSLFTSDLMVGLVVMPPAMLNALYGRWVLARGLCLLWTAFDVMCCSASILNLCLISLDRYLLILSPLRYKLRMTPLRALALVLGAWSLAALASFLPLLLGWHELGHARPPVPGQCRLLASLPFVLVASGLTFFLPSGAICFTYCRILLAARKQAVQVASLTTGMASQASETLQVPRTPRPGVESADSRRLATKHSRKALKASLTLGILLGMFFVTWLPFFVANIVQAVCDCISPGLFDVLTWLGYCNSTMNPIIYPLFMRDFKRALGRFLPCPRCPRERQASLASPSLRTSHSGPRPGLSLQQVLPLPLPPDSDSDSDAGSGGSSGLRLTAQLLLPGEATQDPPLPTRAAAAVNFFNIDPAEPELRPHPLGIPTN
The target of a further experiment is 5-HT1d receptor (Homo sapiens, UniProt P28221). The experiment can be described thus: Serotonergic receptor binding selectivity, 5-HT1d. Particulars: 5-HT RECEPTOR 1d.
Sequence of 5-HT1d receptor (P28221 whole entry): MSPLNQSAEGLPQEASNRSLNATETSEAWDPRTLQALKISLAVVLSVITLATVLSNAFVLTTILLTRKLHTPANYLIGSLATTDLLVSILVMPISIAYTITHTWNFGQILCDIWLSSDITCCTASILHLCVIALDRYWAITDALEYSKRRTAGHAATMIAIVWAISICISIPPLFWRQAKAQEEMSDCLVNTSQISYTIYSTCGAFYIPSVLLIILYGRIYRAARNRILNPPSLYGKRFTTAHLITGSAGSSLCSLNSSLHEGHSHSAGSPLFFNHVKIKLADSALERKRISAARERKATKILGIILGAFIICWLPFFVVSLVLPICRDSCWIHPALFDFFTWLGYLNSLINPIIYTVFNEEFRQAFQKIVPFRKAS
The target in another experiment is 5-HT2a receptor (Homo sapiens, UniProt P28223). As to the kind of experiment: Serotonergic receptor binding selectivity, 5-HT2a.
Sequence of 5-HT2a receptor (P28223 whole entry): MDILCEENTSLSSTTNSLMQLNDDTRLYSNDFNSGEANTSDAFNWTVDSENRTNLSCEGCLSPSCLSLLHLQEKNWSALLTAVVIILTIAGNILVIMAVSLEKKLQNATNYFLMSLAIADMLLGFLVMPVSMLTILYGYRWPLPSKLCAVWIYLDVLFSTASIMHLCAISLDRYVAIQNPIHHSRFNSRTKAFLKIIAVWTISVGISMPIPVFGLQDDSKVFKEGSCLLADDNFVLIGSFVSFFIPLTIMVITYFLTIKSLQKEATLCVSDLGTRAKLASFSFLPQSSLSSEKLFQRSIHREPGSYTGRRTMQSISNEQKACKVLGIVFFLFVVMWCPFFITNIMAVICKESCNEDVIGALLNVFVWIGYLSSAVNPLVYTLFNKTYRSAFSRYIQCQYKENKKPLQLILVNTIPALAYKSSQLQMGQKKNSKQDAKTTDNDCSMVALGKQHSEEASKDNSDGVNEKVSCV
A further experiment deals with 5-HT4 receptor (Homo sapiens, UniProt Q13639). The experiment can be described thus: Serotonergic receptor binding selectivity, 5-HT4. Particulars: 5-HT RECEPTOR 4.
Sequence of 5-HT4 receptor (Q13639 whole entry): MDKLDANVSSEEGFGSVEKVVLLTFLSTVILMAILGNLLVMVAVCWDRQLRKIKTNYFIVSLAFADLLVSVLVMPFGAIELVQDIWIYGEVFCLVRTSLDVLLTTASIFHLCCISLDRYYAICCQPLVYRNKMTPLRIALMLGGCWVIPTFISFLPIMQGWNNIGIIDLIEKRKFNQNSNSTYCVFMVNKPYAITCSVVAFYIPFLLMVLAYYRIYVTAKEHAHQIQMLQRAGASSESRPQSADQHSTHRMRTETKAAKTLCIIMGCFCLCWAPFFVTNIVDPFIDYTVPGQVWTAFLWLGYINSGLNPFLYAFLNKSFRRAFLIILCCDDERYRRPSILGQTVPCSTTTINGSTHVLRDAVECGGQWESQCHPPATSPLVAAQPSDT

Molecules are shown by their SMILES. Read-outs that look alike come from different tables or passages of the source.

As usually defined, the Ki is the equilibrium dissociation constant of an inhibitor or competing ligand from its target. By EC50 is commonly meant the concentration at which the effect is half-maximal.

Sequence of 5-HT1b receptor (P28222 whole entry): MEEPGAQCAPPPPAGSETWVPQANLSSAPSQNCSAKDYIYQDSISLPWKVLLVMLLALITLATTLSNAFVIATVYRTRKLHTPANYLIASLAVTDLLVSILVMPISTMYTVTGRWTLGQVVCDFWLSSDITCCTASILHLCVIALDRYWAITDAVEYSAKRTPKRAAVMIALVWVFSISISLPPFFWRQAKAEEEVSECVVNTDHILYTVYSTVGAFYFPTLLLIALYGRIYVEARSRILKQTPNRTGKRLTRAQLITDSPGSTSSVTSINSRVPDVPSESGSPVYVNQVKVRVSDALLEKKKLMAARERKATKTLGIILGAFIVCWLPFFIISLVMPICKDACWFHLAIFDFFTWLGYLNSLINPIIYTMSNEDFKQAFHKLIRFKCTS
Sequence of 5-HT2b receptor (P41595 whole entry): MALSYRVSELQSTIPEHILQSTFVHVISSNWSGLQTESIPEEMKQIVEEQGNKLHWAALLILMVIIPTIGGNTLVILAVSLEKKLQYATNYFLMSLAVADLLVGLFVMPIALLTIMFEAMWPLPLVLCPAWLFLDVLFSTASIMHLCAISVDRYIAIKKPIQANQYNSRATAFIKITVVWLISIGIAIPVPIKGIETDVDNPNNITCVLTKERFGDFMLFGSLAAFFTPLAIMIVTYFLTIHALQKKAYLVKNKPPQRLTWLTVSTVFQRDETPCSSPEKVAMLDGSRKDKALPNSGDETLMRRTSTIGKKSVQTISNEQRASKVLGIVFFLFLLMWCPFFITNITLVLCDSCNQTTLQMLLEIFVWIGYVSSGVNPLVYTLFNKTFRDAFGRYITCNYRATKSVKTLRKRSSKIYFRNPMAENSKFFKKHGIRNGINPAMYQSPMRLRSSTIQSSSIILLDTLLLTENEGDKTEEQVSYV

For `CC[C@H]1CN(c2ccc(C(F)(F)F)c3ccoc23)CCN1.O=C(O)/C=C/C(=O)O` [Example 2, 1-(4-trifluoromethylbenzofur-7-yl)-3(S)-ethylpiperazine fumarate], the Ki is 177 nM at 5-HT2b receptor (5-HT RECEPTOR 2b, read-out: Ki, 5-HT receptor 2b); 1000 nM on 5-HT1f receptor; 0.77 nM at human 5-HT2C receptor [1]; 261 nM on 5-HT1a receptor (5-HT RECEPTOR 1a, read-out: Ki, 5-HT receptor 1a); 2940 nM at 5-HT1b receptor; 1140 nM on 5-HT1e receptor. The inhibition constant (Ki) is 607 nM on 5-HT6 receptor (5-HT RECEPTOR 6, read-out: Ki, 5-HT receptor 6); 726 nM on 5-HT1d receptor; 27.8 nM at 5-HT2a receptor (5-HT RECEPTOR 2a, read-out: Ki, 5-HT receptor 2a). Further, the “affinity for the 5-HT2c receptor (in words)” value at human 5-HT2C receptor [1] is “found to have affinity”. Also, on human 5-HT2C receptor [2], the “functional activity at the 5-HT2c receptor (in words)” value is recorded as “agonist”. For the same molecule, the 50% effective concentration (EC50) on human 5-HT2C receptor [2] (agonist of 5-HT2c receptor, membranes of AV12 cells with human 5-HT2C, 5-HT defines maximal stimulation, read-out: EC50, [35S]-GTPγS assay) came out at 7.8 nM.
Take `C[C@H]1CN(c2ccc(C(F)(F)F)c3ccoc23)CCN1.O=C(O)/C=C/C(=O)O` [Example 1, 1-(4-trifluoromethylbenzofur-7-yl)-3(S)-methylpiperazine fumarate]: the Ki at 5-HT2b receptor turned out to be 177 nM; on 5-HT1f receptor, 163 nM; at human 5-HT2C receptor [1], 2.41 nM; on 5-HT4 receptor it was 977 nM; on 5-HT1a receptor it was 134 nM; at 5-HT1b receptor, 260 nM. Besides, the inhibitory constant (Ki) amounted to 633 nM on 5-HT1e receptor, 225 nM at 5-HT6 receptor, 147 nM at 5-HT1d receptor and 37.6 nM on 5-HT2a receptor. Besides, the “affinity for the 5-HT2c receptor (in words)” value at human 5-HT2C receptor [1] is recorded as “found to have affinity”. In addition, the EC50 on human 5-HT2C receptor [2] is 8.5 nM. Also, on human 5-HT2C receptor [2], the “functional activity at the 5-HT2c receptor (in words)” value is recorded as “agonist”.
